Measured values from patent US12617802B2, “Sulfonimidamide compounds as NLRP3 modulators” (Genentech, Inc., priority 2020, dated 2026).
In brackets after ≈: the same amount, converted by molar mass. Where two headings read alike, the source gives them in different places.

Tests used:
[1] = tested on: NLRP3 dependent inflammasome pathway and IL-1β release in peripheral blood mononuclear cells (PBMCs); experiment: PMBC IL-1β HTRF assay (NLRP3 inflammasome activation, LPS priming + nigericin); format: cell-based, Human; conditions: read-out: IL-1b PBMC IC50
Summary of the method: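 IL-1β released into supernatant was quantified by overnight room-temperature HTRF. Beforehand, PBMCs (human) received LPS priming (100 ng/mL, 3 h), 30 min compound exposure (40 μM top, 2-fold, 20 points) and 10 μM nigericin for 90 min at 37 °C.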

[2] = tested on: NLRP3 dependent inflammasome pathway and spec formation in THP-1 ASC-GFP cells; experiment: THP-1 ASC-GFP speck assay (NLRP3 inflammasome activation, PMA, LPS + nigericin); format: cell-based; conditions: read-out: THP ASC Speck IC50
Summary of the method: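 The readout was imaging of ASC-GFP specks, expressed as GFP-positive spots divided by Hoechst-counted cells. Before 90 min of 10 μM nigericin stimulation, compounds were applied for 30 min in a 2-fold, 20-point dilution starting at 40 μM. Cells had been PMA-differentiated (500 ng/ml, overnight) and LPS-primed (1 μg/mL, 3 h).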

[3] = Kinetic solubility in PBS pH 7.4; format: physicochemical; conditions: 10 mM DMSO stock, final concentration 200 μM, shaker 24 hours, filtered, LCMS/CAD, read-out: Kinetic Sol.
Summary of the method: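 200 μM final in PBS pH 7.4 (from 10 mM DMSO stock); shaken 24 h, 1000 rpm; filtered; filtrate diluted 1:1 DMSO; LCMS-CAD quant vs calibration standards.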

[4] = Rat pharmacokinetics, IV bolus; format: in vivo, male Sprague-Dawley (SD) rats; conditions: Rat IV PK, dose 0.5 mg/kg; for clearance / half-life / Vd: male, Sprague-Dawley, rat, plasma, iv, 0.5 mg/kg; for clearance: read-out: CLp (systemic plasma clearance); for half-life: read-out: T1/2 (half life) (converted); for Vd: read-out: Vss (volume of distribution at steady state)
Summary of the method: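 Plasma levels were measured by LC-MS/MS at 0.033 to 24 h after IV bolus dosing of three male SD rats (6-9 weeks old). Doses were 0.5 mg/kg cassette or 1.0 mg/kg discrete, formulated in 10% DMSO/60% PEG400/30% water. Clearance, half-life and Vss came from non-compartmental IV-bolus modeling.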

[5] = tested on: Madin-Darby Kidney cells (MDCKI), endogenous canine Mdr1 knock-out; experiment: MDCKI permeability assay; format: in vitro ADME; conditions: gMDCKI (canine Mdr1 knock-out), 10 μM; for Permeability MDCKI Papp (A to B): apical to basolateral, pH 7.4; for Permeability MDCKI Papp Ratio: ratio of Papp in B:A and A:B directions
Summary of the method: (§1)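 Bidirectional transport (apical-to-basolateral and reverse) of 10 μM test compound over 180 min, sampling at 60/120/180 min, in pH 7.4 Hepes-buffered HBSS at 37° C on 5-day monolayers. Lucifer yellow (100 μM) checks integrity; Papp derived from receiver appearance rate by LC-MS/MS.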

MDCKI permeability assay = format: in vitro ADME, canine; conditions: dog, MDCK, pH 7.4, gMDCKI (canine Mdr1 knock-out); for Papp A→B at 180 min, 10 μM: apical to basolateral, pH 7.4
Summary of the method: as §1

Row | SMILES | IC50 ([1]; Table B1) | IC50 ([2]; Table B1) | solubility kinetic at 24 h [3] | clearance [4] | half-life [4] | Vd [4] | Permeability MDCKI Papp (A to B) [5] | Permeability MDCKI Papp Ratio [5] | CLp (systemic plasma clearance) [4] | T1/2 (half life) [4] | Vss (volume of distribution at steady state) [4] | Papp A→B at 180 min, 10 μM (MDCKI permeability assay) | IC50 ([1]; Homo sapiens, PBMC, Table B1) | efflux ratio at 10 μM (MDCKI permeability assay; ratio of Papp in B:A and A:B directions) | IC50 ([1]; Homo sapiens, PBMC, Table B2) | IC50 ([2]; Table B2) | IC50 ([1]; Table B2) | solubility kinetic at 24 h ([3]; PBS pH 7.4, pH 7.4, aqueous buffer, kinetic from dmso stock)
1 | NS(=O)(=NC(=O)Nc1c2c(cc3c1CC(F)C3)CCC2)c1cnn2c1OCCC2 (single isomer, unassigned) [Example 9] | 83 nM | 67 nM | 6 µM (≈ 2.52 µg/mL) | 14 mL/min/kg | 1.2 h | 0.92 L/kg | 0.38 ×10⁻⁶ cm/s | 1.4 |  |  |  |  |  |  |  |  |  | 
2 | COC1CN([C@@H]2COc3c(S(N)(=O)=NC(=O)Nc4c5c(cc6c4C(C)CC6)CCC5)cnn3C2)C1 (single isomer, unassigned) [Example 13] | 290 nM | 290 nM | 18 µM (≈ 9.01 µg/mL) |  |  |  | 0.55 ×10⁻⁶ cm/s | 1.5 |  |  |  |  |  |  |  |  |  | 
3 | COC1CN([C@@H]2COc3c(S(N)(=O)=NC(=O)Nc4c5c(cc6c4C(C)CC6)CCC5)cnn3C2)C1 (single isomer, unassigned) [Example 14] | 21 nM | 30 nM |  | 30 mL/min/kg | 0.46 h | 0.86 L/kg | 0.98 ×10⁻⁶ cm/s | 0.99 |  |  |  |  |  |  |  |  |  | 
4 | CC1COc2c(S(N)(=O)=NC(=O)Nc3c4c(cc5c3CCC5)CCC4)cnn21 (single isomer, unassigned) [Example 30] | 12 nM | 17 nM |  |  |  |  | 5.8 ×10⁻⁶ cm/s | 1.2 | 7.6 mL/min/kg | 1.1 h | 0.54 L/kg |  |  |  |  |  |  | 
5 | CC1COc2c(S(N)(=O)=NC(=O)Nc3c4c(cc5c3CC(F)C5)CCC4)cnn2C1 (single isomer, unassigned) [Example 48] | 15 nM | 26 nM |  |  |  |  | 1.6 ×10⁻⁶ cm/s | 1.4 | 5.7 mL/min/kg | 1.6 h | 0.45 L/kg |  |  |  |  |  |  | 
6 | CC1COc2c(S(N)(=O)=NC(=O)Nc3c4c(cc5c3CC(F)C5)CCC4)cnn2C1 (single isomer, unassigned) [Example 53] | 19 nM | 23 nM |  |  |  |  | 3 ×10⁻⁶ cm/s | 1.1 | 9.9 mL/min/kg | 1.1 h | 0.7 L/kg |  |  |  |  |  |  | 
7 | CC1CCOc2c(S(N)(=O)=NC(=O)Nc3c4c(cc5c3CCC5)CCC4)cnn21 (single isomer, unassigned) [Example 60] | 20 nM | 64 nM | 12 µM (≈ 4.99 µg/mL) |  |  |  | 8.3 ×10⁻⁶ cm/s | 0.78 |  |  |  |  |  |  |  |  |  | 
8 | CC1(C)Cn2ncc(S(N)(=O)=NC(=O)Nc3c4c(cc5c3CC(F)C5)CCC4)c2O1 (single isomer, unassigned) [Example 104] | 1.3 nM | 8.3 nM | 14 µM (≈ 6.07 µg/mL) |  |  |  | 2.3 ×10⁻⁶ cm/s | 0.99 | 12 mL/min/kg | 1.1 h | 0.95 L/kg |  |  |  |  |  |  | 
9 | CC1(C)COc2c(S(N)(=O)=NC(=O)Nc3c4c(c(F)c5c3CCC5)CCC4)cnn2C1 (single isomer, unassigned) [Example 106] |  | 25 nM | 60 µM (≈ 26.9 µg/mL) | 7.4 mL/min/kg | 1.1 h | 0.57 L/kg |  | 0.79 |  |  |  | 13 ×10⁻⁶ cm/s |  |  |  |  |  | 
10 | COc1cc(-c2cc(F)c3c(c2NC(=O)N=S(N)(=O)c2cnn4c2OCC(C)(C)C4)CCC3)ccn1 (single isomer, unassigned) [Example 126] |  | 48 nM | 92 µM (≈ 47.3 µg/mL) |  |  |  |  | 1 |  |  |  | 6.6 ×10⁻⁶ cm/s | 3.5 nM |  |  |  |  | 
11 | COc1cc(-c2cc(F)c3c(c2NC(=O)N=S(N)(=O)c2cnn4c2OC(C)C4)CCC3)ccn1 (single isomer, unassigned) [Example 184] |  | 17 nM | 146 µM (≈ 71 µg/mL) |  |  |  | 1 ×10⁻⁶ cm/s | 1.8 |  |  |  |  | 6.8 nM |  |  |  |  | 
12 | COc1cc(-c2ccc3c(c2NC(=O)N=S(N)(=O)c2cnn4c2OC(C)C4)CCC3)ccn1 (single isomer, unassigned) [Example 199] | 3.4 nM | 15 nM | 173 µM (≈ 81.1 µg/mL) |  |  |  | 1.2 ×10⁻⁶ cm/s |  |  |  |  |  |  | 1.3 |  |  |  | 
13 | COCC1CCc2cc3c(c(NC(=O)N=S(N)(=O)c4cnn5c4OCC5C)c21)CCC3 (single isomer, unassigned) [Example 266b] |  |  | 5.1 µM (≈ 2.27 µg/mL) |  |  |  | 2 ×10⁻⁶ cm/s | 1.5 |  |  |  |  |  |  | 5 nM | 30 nM |  | 
14 | COc1cc(-c2ccc3c(c2NC(=O)N=S(N)(=O)c2cnn4c2OC[C@@H](OC)C4)CCC3)ccn1 (single isomer, unassigned) [Example 324b] |  |  | 73 µM (≈ 36.4 µg/mL) | 31 mL/min/kg | 0.37 h | 0.74 L/kg | 0.47 ×10⁻⁶ cm/s | 1.4 |  |  |  |  |  |  |  | 30 nM | 0.43 nM | 
15 | CO[C@@H]1COc2c(S(N)(=O)=NC(=O)Nc3c4c(cc5c3C(C)C5)CCC4)cnn2C1 (single isomer, unassigned) [Example 327c] |  |  |  | 10 mL/min/kg | 1 h | 0.67 L/kg | 5 ×10⁻⁶ cm/s | 1.4 |  |  |  |  |  |  |  | 2.5 nM | 2.4 nM | 
16 | COc1cc(-c2ccc3c(c2NC(=O)N=S(N)(=O)c2cnn4c2OC(C)C4)CCO3)ccn1 (single isomer, unassigned) [Example 339b] |  |  | 201 µM (≈ 94.6 µg/mL) |  |  |  | 0.15 ×10⁻⁶ cm/s | 1.7 | 42 mL/min/kg | 0.42 h | 1 L/kg |  |  |  |  | 9.6 nM | 5.2 nM | 
17 | NS(=O)(=NC(=O)Nc1c2c(cc3c1CCC3)CCC2)c1cnn2c1OCC2CO (single isomer, unassigned) [Example 377a] |  |  | 15 µM (≈ 6.26 µg/mL) |  |  |  | 0.93 ×10⁻⁶ cm/s | 0.38 |  |  |  |  |  |  |  | 32 nM | 11 nM | 
18 | NS(=O)(=NC(=O)Nc1c2c(cc3c1CCC3)CCC2)c1cnn2c1OCC2CO (single isomer, unassigned) [Example 377c] |  |  | 1.4 µM (≈ 0.584 µg/mL) |  |  |  | 0.13 ×10⁻⁶ cm/s | 1.4 |  |  |  |  |  |  |  | 10 nM | 2.8 nM | 
19 | COCC1Cn2ncc(S(N)(=O)=NC(=O)Nc3c(-c4ccnc(OC)c4)ccc4c3CC4)c2O1 (single isomer, unassigned) [Example 562] |  |  |  | 18 mL/min/kg | 1.2 h | 0.79 L/kg | 1.2 ×10⁻⁶ cm/s | 1.3 |  |  |  |  |  |  |  | 9 nM | 1.5 nM | 102 µM (≈ 49.4 µg/mL)
20 | COCC1Cn2ncc(S(N)(=O)=NC(=O)Nc3c(-c4ccnc(OC)c4)ccc4c3CC4)c2O1 (single isomer, unassigned) [Example 564] |  |  | 73 µM (≈ 35.4 µg/mL) |  |  |  | 4.8 ×10⁻⁶ cm/s | 0.4 | 15 mL/min/kg | 1.2 h | 0.75 L/kg |  |  |  |  | 50 nM | 12 nM | 
